According to publication PMC11899342, “Novel Triazeneindole Antibiotics: Synthesis and Hit-to-Lead Optimization” (International Journal of Molecular Sciences, 2025):

Test system: MRSA clinical isolates
Experiment: Antibiotic susceptibility profile of MRSA clinical isolates (EUCAST breakpoints)
Format: cell-based, Staphylococcus aureus
Excerpt: Clinical MRSA isolates with multidrug resistance were obtained from the collection of the Research Institute of Antimicrobial Chemotherapy, Smolensk State Medical Academy.

`Cn1nnc(-c2ccc(-c3ccc(N4C[C@H](CO)OC4=O)cc3F)cn2)n1` [Tedizolid] was tested, and the Drug sensibility profile (MRSA strain 6) was “S”, the Drug sensibility profile (MRSA strain 7) was “S” and the Drug sensibility profile (MRSA strain 8) was “S”. For the same compound, the Drug sensibility profile (MRSA strain 9) was “S”, the Drug sensibility profile (MRSA strain 10) was “S” and the Drug sensibility profile (MRSA strain 12) was “S”. For the same compound, the Drug sensibility profile (MRSA strain 13) was “S”, the Drug sensibility profile (MRSA strain 14) was “S” and the Drug sensibility profile (MRSA strain 15) was “S”. The Drug sensibility profile (MRSA strain 16) was “S”, the Drug sensibility profile (MRSA strain 17) was “S” and the Drug sensibility profile (MRSA strain 18) was “S”. The Drug sensibility profile (MRSA strain 21) was “S”, the Drug sensibility profile (MRSA strain 23) was “S” and the Drug sensibility profile (MRSA strain 24) was “S”. The Drug sensibility profile (MRSA strain 25) was “S”, the Drug sensibility profile (MRSA strain 26) was “S” and the Drug sensibility profile (MRSA strain 27) was “S”. For the same compound, the Drug sensibility profile (MRSA strain 28) was “S”, the Drug sensibility profile (MRSA strain 29) was “S” and the Drug sensibility profile (MRSA strain 36) was “S”. The Drug sensibility profile (MRSA strain 41) was “S”, the Drug sensibility profile (MRSA strain 42) was “S” and the Drug sensibility profile (MRSA strain 44) was “S”. For the same compound, the Drug sensibility profile (MRSA strain 45) was “S” and the Drug sensibility profile (MRSA strain 51) was “S”.
With `Cc1cc(NS(=O)(=O)c2ccc(N)cc2)no1` [SUL, sulfamethoxazole] the Drug sensibility profile (MRSA strain 1) was “R”, the Drug sensibility profile (MRSA strain 2) was “S” and the Drug sensibility profile (MRSA strain 3) was “S”. The Drug sensibility profile (MRSA strain 4) was “S”, the Drug sensibility profile (MRSA strain 5) was “S” and the Drug sensibility profile (MRSA strain 6) was “S”. The Drug sensibility profile (MRSA strain 7) was “S”, the Drug sensibility profile (MRSA strain 8) was “S” and the Drug sensibility profile (MRSA strain 9) was “S”. For the same compound, the Drug sensibility profile (MRSA strain 10) was “S”, the Drug sensibility profile (MRSA strain 12) was “S” and the Drug sensibility profile (MRSA strain 13) was “S”. For the same compound, the Drug sensibility profile (MRSA strain 14) was “S”, the Drug sensibility profile (MRSA strain 15) was “S” and the Drug sensibility profile (MRSA strain 16) was “S”. For the same compound, the Drug sensibility profile (MRSA strain 17) was “I”, the Drug sensibility profile (MRSA strain 18) was “S” and the Drug sensibility profile (MRSA strain 21) was “S”. For the same compound, the Drug sensibility profile (MRSA strain 23) was “S”, the Drug sensibility profile (MRSA strain 24) was “S” and the Drug sensibility profile (MRSA strain 25) was “S”. For the same compound, the Drug sensibility profile (MRSA strain 26) was “S S S S S S S”, the Drug sensibility profile (MRSA strain 27) was “S” and the Drug sensibility profile (MRSA strain 28) was “S”. The Drug sensibility profile (MRSA strain 29) was “S”, the Drug sensibility profile (MRSA strain 30) was “S” and the Drug sensibility profile (MRSA strain 31) was “S”. The Drug sensibility profile (MRSA strain 34) was “S”, the Drug sensibility profile (MRSA strain 35) was “S” and the Drug sensibility profile (MRSA strain 36) was “S S S S S S S”. The Drug sensibility profile (MRSA strain 40) was “S”, the Drug sensibility profile (MRSA strain 41) was “S” and the Drug sensibility profile (MRSA strain 42) was “S”. The Drug sensibility profile (MRSA strain 43) was “S”, the Drug sensibility profile (MRSA strain 44) was “S” and the Drug sensibility profile (MRSA strain 45) was “S”. For the same compound, the Drug sensibility profile (MRSA strain 46) was “S”, the Drug sensibility profile (MRSA strain 48) was “S” and the Drug sensibility profile (MRSA strain 49) was “S”. For the same compound, the Drug sensibility profile (MRSA strain 50) was “S” and the Drug sensibility profile (MRSA strain 51) was “S”.
For `CC[C@H]1OC(=O)[C@H](C)[C@@H](O[C@H]2C[C@@](C)(OC)[C@@H](O)[C@H](C)O2)[C@H](C)[C@@H](O[C@@H]2O[C@H](C)C[C@H](N(C)C)[C@H]2O)[C@](C)(O)C[C@@H](C)C(=O)[C@H](C)[C@@H](O)[C@]1(C)O` [ERI, erythromycin], the Drug sensibility profile (MRSA strain 1) was “S”, the Drug sensibility profile (MRSA strain 2) was “R” and the Drug sensibility profile (MRSA strain 3) was “S”. For the same compound, the Drug sensibility profile (MRSA strain 4) was “S”, the Drug sensibility profile (MRSA strain 5) was “R” and the Drug sensibility profile (MRSA strain 6) was “R”. For the same compound, the Drug sensibility profile (MRSA strain 7) was “R”, the Drug sensibility profile (MRSA strain 8) was “R” and the Drug sensibility profile (MRSA strain 9) was “R”. For the same compound, the Drug sensibility profile (MRSA strain 10) was “S”, the Drug sensibility profile (MRSA strain 12) was “R” and the Drug sensibility profile (MRSA strain 13) was “S”. The Drug sensibility profile (MRSA strain 14) was “R”, the Drug sensibility profile (MRSA strain 15) was “S” and the Drug sensibility profile (MRSA strain 16) was “R”. For the same compound, the Drug sensibility profile (MRSA strain 17) was “S”, the Drug sensibility profile (MRSA strain 18) was “S” and the Drug sensibility profile (MRSA strain 21) was “R”. For the same compound, the Drug sensibility profile (MRSA strain 23) was “R”, the Drug sensibility profile (MRSA strain 24) was “S” and the Drug sensibility profile (MRSA strain 25) was “S”. For the same compound, the Drug sensibility profile (MRSA strain 26) was “S S S S S S S”, the Drug sensibility profile (MRSA strain 27) was “S” and the Drug sensibility profile (MRSA strain 28) was “R”. For the same compound, the Drug sensibility profile (MRSA strain 29) was “S”, the Drug sensibility profile (MRSA strain 30) was “I” and the Drug sensibility profile (MRSA strain 31) was “R”. The Drug sensibility profile (MRSA strain 34) was “I”, the Drug sensibility profile (MRSA strain 35) was “I” and the Drug sensibility profile (MRSA strain 36) was “S S S S S S S”. For the same compound, the Drug sensibility profile (MRSA strain 40) was “R”, the Drug sensibility profile (MRSA strain 41) was “S” and the Drug sensibility profile (MRSA strain 42) was “S”. The Drug sensibility profile (MRSA strain 43) was “I”, the Drug sensibility profile (MRSA strain 44) was “I” and the Drug sensibility profile (MRSA strain 45) was “R”. For the same compound, the Drug sensibility profile (MRSA strain 46) was “S”, the Drug sensibility profile (MRSA strain 48) was “R” and the Drug sensibility profile (MRSA strain 49) was “I”. For the same compound, the Drug sensibility profile (MRSA strain 50) was “R” and the Drug sensibility profile (MRSA strain 51) was “S”.
With `CO/N=C(\C(=O)N[C@@H]1C(=O)N2C(C(=O)O)=C(COC(C)=O)CS[C@H]12)c1csc(N)n1` [CEF, cefotaxime] the Drug sensibility profile (MRSA strain 1) was “S”, the Drug sensibility profile (MRSA strain 2) was “S” and the Drug sensibility profile (MRSA strain 3) was “S”. For the same compound, the Drug sensibility profile (MRSA strain 4) was “S”, the Drug sensibility profile (MRSA strain 5) was “S” and the Drug sensibility profile (MRSA strain 6) was “R”. The Drug sensibility profile (MRSA strain 7) was “S”, the Drug sensibility profile (MRSA strain 8) was “R” and the Drug sensibility profile (MRSA strain 9) was “S”. The Drug sensibility profile (MRSA strain 10) was “S”, the Drug sensibility profile (MRSA strain 12) was “S” and the Drug sensibility profile (MRSA strain 13) was “R”. The Drug sensibility profile (MRSA strain 14) was “S”, the Drug sensibility profile (MRSA strain 15) was “S” and the Drug sensibility profile (MRSA strain 16) was “S”. For the same compound, the Drug sensibility profile (MRSA strain 17) was “S”, the Drug sensibility profile (MRSA strain 18) was “S” and the Drug sensibility profile (MRSA strain 21) was “R”. The Drug sensibility profile (MRSA strain 23) was “S”, the Drug sensibility profile (MRSA strain 24) was “S” and the Drug sensibility profile (MRSA strain 25) was “S”. The Drug sensibility profile (MRSA strain 26) was “S S S S S S S”, the Drug sensibility profile (MRSA strain 27) was “R” and the Drug sensibility profile (MRSA strain 28) was “S”. The Drug sensibility profile (MRSA strain 29) was “S”, the Drug sensibility profile (MRSA strain 30) was “S” and the Drug sensibility profile (MRSA strain 31) was “R”. For the same compound, the Drug sensibility profile (MRSA strain 34) was “R”, the Drug sensibility profile (MRSA strain 35) was “R” and the Drug sensibility profile (MRSA strain 36) was “S S S S S S S”. The Drug sensibility profile (MRSA strain 40) was “S”, the Drug sensibility profile (MRSA strain 41) was “R” and the Drug sensibility profile (MRSA strain 42) was “S”. The Drug sensibility profile (MRSA strain 43) was “S”, the Drug sensibility profile (MRSA strain 44) was “R” and the Drug sensibility profile (MRSA strain 45) was “S”. For the same compound, the Drug sensibility profile (MRSA strain 46) was “S”, the Drug sensibility profile (MRSA strain 48) was “R” and the Drug sensibility profile (MRSA strain 49) was “S”. For the same compound, the Drug sensibility profile (MRSA strain 50) was “R” and the Drug sensibility profile (MRSA strain 51) was “S”.
With `CC(=O)O[C@H]1C[C@@]2(C)[C@@H](C[C@@H](O)[C@H]3[C@@]4(C)CC[C@@H](O)[C@@H](C)[C@@H]4CC[C@@]32C)/C1=C(\CCC=C(C)C)C(=O)O` [Fusidic acid] the Drug sensibility profile (MRSA strain 1) was “S”, the Drug sensibility profile (MRSA strain 2) was “S” and the Drug sensibility profile (MRSA strain 3) was “S”. The Drug sensibility profile (MRSA strain 4) was “S”, the Drug sensibility profile (MRSA strain 5) was “S” and the Drug sensibility profile (MRSA strain 6) was “S”. For the same compound, the Drug sensibility profile (MRSA strain 7) was “S”, the Drug sensibility profile (MRSA strain 8) was “S” and the Drug sensibility profile (MRSA strain 9) was “S”. The Drug sensibility profile (MRSA strain 10) was “S”, the Drug sensibility profile (MRSA strain 12) was “S” and the Drug sensibility profile (MRSA strain 13) was “S”. For the same compound, the Drug sensibility profile (MRSA strain 14) was “S”, the Drug sensibility profile (MRSA strain 15) was “S” and the Drug sensibility profile (MRSA strain 16) was “S”. For the same compound, the Drug sensibility profile (MRSA strain 17) was “R”, the Drug sensibility profile (MRSA strain 18) was “S” and the Drug sensibility profile (MRSA strain 21) was “S”. For the same compound, the Drug sensibility profile (MRSA strain 23) was “S”, the Drug sensibility profile (MRSA strain 24) was “S” and the Drug sensibility profile (MRSA strain 25) was “S”. For the same compound, the Drug sensibility profile (MRSA strain 26) was “S”, the Drug sensibility profile (MRSA strain 27) was “S” and the Drug sensibility profile (MRSA strain 28) was “S”. The Drug sensibility profile (MRSA strain 29) was “S”, the Drug sensibility profile (MRSA strain 30) was “S” and the Drug sensibility profile (MRSA strain 31) was “S”. The Drug sensibility profile (MRSA strain 34) was “S”, the Drug sensibility profile (MRSA strain 35) was “S” and the Drug sensibility profile (MRSA strain 36) was “S”. For the same compound, the Drug sensibility profile (MRSA strain 40) was “S”, the Drug sensibility profile (MRSA strain 41) was “S” and the Drug sensibility profile (MRSA strain 42) was “S”. The Drug sensibility profile (MRSA strain 43) was “S”, the Drug sensibility profile (MRSA strain 44) was “S” and the Drug sensibility profile (MRSA strain 45) was “S”. For the same compound, the Drug sensibility profile (MRSA strain 46) was “S”, the Drug sensibility profile (MRSA strain 48) was “S” and the Drug sensibility profile (MRSA strain 49) was “S”. For the same compound, the Drug sensibility profile (MRSA strain 50) was “S” and the Drug sensibility profile (MRSA strain 51) was “S”.
